Laboratory results reported in doi:10.1101/2024.06.17.599304v1, “Dizocilpine derivatives with neuroprotective effect lacking the psychomimetic side effects” (biorxiv, 2024).
Structures can show the parent of a compound that is named as a salt. Where two headings read alike, the source gives them in different places.

Columns and labels:
[1] = target: T1, hGluN1/hGluN2B (Homo sapiens, UniProt Q05586+Q13224); assay: cell-based; set-up: gene GRIN1; cDNA vectors for human GluN1-1a and GluN2B co-transfected with GFP in HEK293 cells; diheteromeric receptor; whole-cell voltage-clamp electrophysiology, inhibition of steady-state L-glutamate-induced currents at -60 mV; conditions: HEK293; -60 mV, 1 mM L-glutamate
Experimental: (§1) First, we determined the relative inhibition of all novel compounds on the two major diheteromeric NMDA receptor subtypes in the adult cortex – GluN1/GluN2A and GluN1/GluN2B [1] – using a clinically relevant concentration (3 µM). We kept the measured cells at a membrane potential of -60 mV, and the values of relative inhibition by the compounds were calculated from the L-glutamate-induced responses of human versions of the GluN1/GluN2A (hGluN1/hGluN2A) and GluN1/GluN2B (hGluN1/hGluN2B) receptors obtained under steady-state conditions. […] Specifically, in the case of hGluN1/hGluN2A receptors, we obtained relative inhibition values ranging from ∼5% for compound 3h to ∼93% for compound 6f, while for hGluN1/hGluN2B receptors, we measured values ranging from ∼3% for compound 3i to ∼92% for compound 6g at a fixed dose of 3 µM of the tested compound. […] It can be assumed that the positive and negative effects of a given inhibitor of the NMDA receptor in vivo are caused by their affinity and the kinetics of inhibition, in addition to their availability in the CNS. […] In further experiments, we generated concentration-response curves for 6f (0.03-10 µM) and 3l (0.3-300 µM) on both hGluN1/hGluN2A and hGluN1/hGluN2B receptors at negative (-60 mV) and positive (40 mV) membrane potentials (Fig. 2A-D). […] (A, C) Representative whole-cell voltage-clamp recordings of HEK293 cells expressing hGluN1/hGluN2A or hGluN1/hGluN2B receptors showing the inhibitory effects of compound 6f (0.03 - 300 µM) and compound 3l (0.3 - 300 µM) at membrane potentials of 40 mV (A) and -60 mV (C). Glu = 1 mM L-glutamate. (B, D) Normalized inhibitory concentration-response curves for compound 6f and compound 3l for hGluN1/hGluN2A and hGluN1/hGluN2B receptors at membrane potentials of 40 mV (B) and -60 mV (D). Concentration-response curves were fitted using Equation 1; the resulting IC50 values, Hill coefficients, and the numbers of cells measured for each membrane potential are shown in Table 3.

[2] = target: T1, hGluN1/hGluN2B; assay: whole-cell patch clamp, HEK293; format: cell-based; set-up: gene GRIN1; cDNA vectors for human GluN1-1a and GluN2B co-transfected with GFP in HEK293 cells; diheteromeric receptor; conditions: -60 mV; 1 mM L-glutamate, 100 µM glycine; pH 7.3; voltage-dependent block
Text: whole-cell patch clamp, HEK293 on hGluN1/hGluN2B

[3] = target: T2, human plasmatic butyrylcholinesterase (hBChE) (Homo sapiens, UniProt P06276); assay: biochemical
T2 construct: gene BCHE

[4] = target: T3, human recombinant AChE (hAChE) (Homo sapiens, UniProt P22303); assay: modified Ellman's method; format: biochemical
T3 construct: recombinant enzyme purchased from Merck

[5] = target: T4, hGluN1/hGluN2A (Homo sapiens, UniProt Q05586+Q12879); assay: whole-cell patch clamp, HEK293; format: cell-based; set-up: gene GRIN1; cDNA vectors for human GluN1-1a and GluN2A co-transfected with GFP in HEK293 cells; diheteromeric receptor; conditions: -60 mV; 1 mM L-glutamate, 100 µM glycine; pH 7.3; voltage-dependent block
Text: whole-cell patch clamp, HEK293 on hGluN1/hGluN2A

[6] = target: T4, hGluN1/hGluN2A; assay: cell-based; set-up: gene GRIN1; cDNA vectors for human GluN1-1a and GluN2A co-transfected with GFP in HEK293 cells; diheteromeric receptor; whole-cell voltage-clamp electrophysiology, inhibition of steady-state L-glutamate-induced currents at -60 mV; conditions: HEK293; -60 mV, 1 mM L-glutamate
Experimental: as §1

[7] = target: T2, human plasmatic butyrylcholinesterase (hBChE)

T4 sequence (Q12879 23-1464, other chains not shown): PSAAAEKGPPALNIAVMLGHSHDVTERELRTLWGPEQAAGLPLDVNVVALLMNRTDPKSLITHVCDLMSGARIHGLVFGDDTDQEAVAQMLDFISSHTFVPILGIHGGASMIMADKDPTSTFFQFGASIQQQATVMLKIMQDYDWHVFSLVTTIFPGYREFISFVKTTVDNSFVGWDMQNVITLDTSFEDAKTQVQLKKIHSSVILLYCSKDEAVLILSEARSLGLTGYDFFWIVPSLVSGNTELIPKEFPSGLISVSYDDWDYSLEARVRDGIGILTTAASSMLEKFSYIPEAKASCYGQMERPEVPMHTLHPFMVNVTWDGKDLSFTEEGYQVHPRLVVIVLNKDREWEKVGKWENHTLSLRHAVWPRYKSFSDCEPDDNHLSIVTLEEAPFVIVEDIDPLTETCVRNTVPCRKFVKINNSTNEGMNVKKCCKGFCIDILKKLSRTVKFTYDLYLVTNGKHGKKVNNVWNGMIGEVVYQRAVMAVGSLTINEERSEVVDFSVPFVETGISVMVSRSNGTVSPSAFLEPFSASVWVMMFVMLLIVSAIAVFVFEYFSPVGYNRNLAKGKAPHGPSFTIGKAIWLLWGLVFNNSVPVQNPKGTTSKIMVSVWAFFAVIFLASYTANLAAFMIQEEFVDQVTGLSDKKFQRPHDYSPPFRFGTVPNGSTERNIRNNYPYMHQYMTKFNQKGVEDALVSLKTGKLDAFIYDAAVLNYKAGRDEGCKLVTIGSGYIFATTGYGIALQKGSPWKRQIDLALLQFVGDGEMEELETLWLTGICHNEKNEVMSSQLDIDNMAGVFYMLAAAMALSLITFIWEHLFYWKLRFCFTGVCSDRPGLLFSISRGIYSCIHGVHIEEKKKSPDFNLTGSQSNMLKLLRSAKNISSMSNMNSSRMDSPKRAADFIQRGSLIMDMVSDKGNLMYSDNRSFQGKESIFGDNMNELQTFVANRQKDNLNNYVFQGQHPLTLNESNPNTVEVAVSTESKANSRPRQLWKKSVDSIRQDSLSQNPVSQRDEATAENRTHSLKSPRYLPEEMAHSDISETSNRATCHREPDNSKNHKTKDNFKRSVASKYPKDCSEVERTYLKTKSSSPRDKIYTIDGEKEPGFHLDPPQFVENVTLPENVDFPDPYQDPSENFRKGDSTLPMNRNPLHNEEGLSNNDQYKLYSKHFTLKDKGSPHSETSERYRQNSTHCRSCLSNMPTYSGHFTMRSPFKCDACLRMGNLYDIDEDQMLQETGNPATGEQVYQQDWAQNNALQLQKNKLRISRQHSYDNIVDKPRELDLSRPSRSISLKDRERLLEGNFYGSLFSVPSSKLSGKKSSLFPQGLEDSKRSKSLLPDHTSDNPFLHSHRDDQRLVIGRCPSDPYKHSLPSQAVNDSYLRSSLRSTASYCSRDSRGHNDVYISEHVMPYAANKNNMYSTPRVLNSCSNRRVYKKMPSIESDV
T2 sequence (P06276 29-602): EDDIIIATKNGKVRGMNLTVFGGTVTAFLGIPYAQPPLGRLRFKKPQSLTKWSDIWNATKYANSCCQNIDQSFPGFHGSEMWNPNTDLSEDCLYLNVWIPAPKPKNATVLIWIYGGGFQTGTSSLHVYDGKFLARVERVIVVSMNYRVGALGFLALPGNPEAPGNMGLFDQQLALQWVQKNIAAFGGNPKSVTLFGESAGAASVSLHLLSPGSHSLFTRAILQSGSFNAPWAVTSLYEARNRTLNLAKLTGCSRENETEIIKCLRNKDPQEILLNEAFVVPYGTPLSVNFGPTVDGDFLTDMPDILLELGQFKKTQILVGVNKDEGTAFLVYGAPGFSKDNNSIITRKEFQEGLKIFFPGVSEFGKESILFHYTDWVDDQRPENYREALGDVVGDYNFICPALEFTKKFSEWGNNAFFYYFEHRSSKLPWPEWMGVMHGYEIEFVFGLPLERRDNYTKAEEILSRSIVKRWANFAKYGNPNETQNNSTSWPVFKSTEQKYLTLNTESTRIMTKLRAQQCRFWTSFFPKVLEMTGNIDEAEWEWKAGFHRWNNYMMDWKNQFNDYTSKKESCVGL
T1 sequence (Q13224 27-1484, other chains not shown): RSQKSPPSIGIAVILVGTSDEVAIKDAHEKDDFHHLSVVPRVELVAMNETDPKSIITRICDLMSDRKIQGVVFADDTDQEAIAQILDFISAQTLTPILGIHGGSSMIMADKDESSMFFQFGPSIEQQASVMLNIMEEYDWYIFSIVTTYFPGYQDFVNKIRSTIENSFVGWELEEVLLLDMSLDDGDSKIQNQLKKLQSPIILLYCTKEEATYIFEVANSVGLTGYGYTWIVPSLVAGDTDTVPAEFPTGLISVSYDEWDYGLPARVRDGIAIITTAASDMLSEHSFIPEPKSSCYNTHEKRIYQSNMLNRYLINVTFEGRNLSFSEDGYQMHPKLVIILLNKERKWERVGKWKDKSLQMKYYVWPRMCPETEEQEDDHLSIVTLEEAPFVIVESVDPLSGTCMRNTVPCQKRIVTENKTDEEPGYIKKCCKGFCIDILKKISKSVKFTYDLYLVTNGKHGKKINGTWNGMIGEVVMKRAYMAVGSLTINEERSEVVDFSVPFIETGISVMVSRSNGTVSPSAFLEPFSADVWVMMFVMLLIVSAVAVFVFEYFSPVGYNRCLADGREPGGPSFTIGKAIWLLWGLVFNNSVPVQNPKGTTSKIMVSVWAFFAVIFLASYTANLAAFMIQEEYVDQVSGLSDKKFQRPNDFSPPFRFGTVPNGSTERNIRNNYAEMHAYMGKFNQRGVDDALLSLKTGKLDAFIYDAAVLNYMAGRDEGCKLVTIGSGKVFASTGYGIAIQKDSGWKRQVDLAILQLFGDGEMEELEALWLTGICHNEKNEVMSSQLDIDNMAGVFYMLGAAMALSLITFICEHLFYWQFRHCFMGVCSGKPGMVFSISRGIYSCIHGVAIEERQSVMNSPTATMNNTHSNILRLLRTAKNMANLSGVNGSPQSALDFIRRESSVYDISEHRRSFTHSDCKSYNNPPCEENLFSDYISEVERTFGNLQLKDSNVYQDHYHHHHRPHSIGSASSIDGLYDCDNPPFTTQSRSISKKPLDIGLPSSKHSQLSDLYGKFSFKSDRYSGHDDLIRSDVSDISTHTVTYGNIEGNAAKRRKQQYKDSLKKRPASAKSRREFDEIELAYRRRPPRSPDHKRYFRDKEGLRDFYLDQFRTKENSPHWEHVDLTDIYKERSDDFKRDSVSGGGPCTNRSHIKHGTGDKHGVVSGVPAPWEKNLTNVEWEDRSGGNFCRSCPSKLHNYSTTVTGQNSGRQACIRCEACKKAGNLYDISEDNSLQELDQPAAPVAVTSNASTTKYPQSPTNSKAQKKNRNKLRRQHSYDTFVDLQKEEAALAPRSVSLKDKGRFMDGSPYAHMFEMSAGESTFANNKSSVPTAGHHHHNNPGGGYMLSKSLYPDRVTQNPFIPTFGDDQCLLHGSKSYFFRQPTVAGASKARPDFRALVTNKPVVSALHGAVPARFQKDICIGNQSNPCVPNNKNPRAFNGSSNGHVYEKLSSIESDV
T3 sequence (P22303 32-614): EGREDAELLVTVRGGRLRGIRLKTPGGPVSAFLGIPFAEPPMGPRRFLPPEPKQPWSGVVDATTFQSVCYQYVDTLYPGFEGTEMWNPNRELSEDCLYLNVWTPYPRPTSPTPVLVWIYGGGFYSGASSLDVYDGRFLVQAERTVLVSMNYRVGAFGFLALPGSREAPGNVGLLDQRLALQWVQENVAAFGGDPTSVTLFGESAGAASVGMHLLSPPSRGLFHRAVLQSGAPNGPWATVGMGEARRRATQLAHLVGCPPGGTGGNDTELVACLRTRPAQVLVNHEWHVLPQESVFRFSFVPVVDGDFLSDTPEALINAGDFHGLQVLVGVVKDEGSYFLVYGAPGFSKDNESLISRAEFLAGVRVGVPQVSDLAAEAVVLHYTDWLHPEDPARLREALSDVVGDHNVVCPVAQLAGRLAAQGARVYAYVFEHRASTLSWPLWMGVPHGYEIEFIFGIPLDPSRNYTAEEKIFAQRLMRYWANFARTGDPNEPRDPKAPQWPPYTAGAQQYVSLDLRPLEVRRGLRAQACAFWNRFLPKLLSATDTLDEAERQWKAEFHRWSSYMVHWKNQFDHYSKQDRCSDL

| SMILES | inhibition at 3 µM [1] | IC50 [2] | IC50 [3] | IC50 [4] | IC50 [5] | inhibition at 3 µM [6] | IC50 [7] |
| --- | --- | --- | --- | --- | --- | --- | --- |
| OCCNC1c2ccccc2CCc2ccccc21 [3l, 2-((10,11-dihydro-5H-dibenzo[a,d][7]annulen-5-yl)amino)ethanol hydrochloride] | 49.7 ± 4.47% | 4.4 ± 0.42 µM | > 100 µM | > 100 µM | 4.42 ± 0.9 µM | 48 ± 5.18% | – |
| CC(C)CNC1c2ccccc2C=Cc2ccccc21 [6f, N-isobutyl-5H-dibenzo[a,d][7]annulen-5-amine hydrochloride] | 91.77 ± 0.71% | 0.16 ± 0.01 µM | > 100 µM | > 100 µM | 0.36 ± 0.06 µM | 93.2 ± 1.11% | – |
| C1=Cc2ccccc2C(N2CCCCC2)c2ccccc21 [6h, 1-(5H-dibenzo[a,d][7]annulen-5-yl)piperidine hydrochloride] | 58.4 ± 4.37% | – | – | – | – | 29.9 ± 2.73% | 16.5 ± 0.9 µM |
